“Also recorded” adds a separate entry of the source.
Experiments:
rats = test: Galactosamine-induced liver toxicity in rats (specificity of urinary fibrinogen); type: in vivo, rat; details: 1.1 g/kg ip, 24 h
[1] = test system: renal I/R injury in C57BL/6 mice; test: 27 min bilateral renal ischemia/reperfusion (I/R) injury in mice, peptide given iv after reperfusion; type: in vivo, mouse
Description: FIG. 3 is a set of four bar graphs showing that Bβ15-42 peptide protects mice from renal ischemia/reperfusion (I/R) injury. Male C57Bl6 mice were subjected to 27 minutes bilateral renal ischemia/reperfusion injury or sham surgery and 3.6 mg/kg of Bβ15-42 peptide or random peptide was administered intravenously 1 min following reperfusion. […] Serum creatinine (SCr), blood urea nitrogen (BUN) as indicators of renal dysfunction and urinary levels of fibrinogen (Fg) and kidney injury molecule-1 (Kim-1) as indicators of kidney injury were measured at 24 and 48 h in all the groups. (n=5/group of sham, n=10/group at 24 hours and n=5/group at 48 hours).* represents p<0.05 as determined by one way ANOVA in comparison with sham mice.
Blood and urine analysis was performed as follows. At sacrifice, blood was collected from dorsal aorta in heparinized tubes. Serum creatinine (SCr) concentrations were measured using a Beckman Creatinine Analyzer II. Blood urea nitrogen (BUN) was measured spectrophotometrically at 340 nm using a commercially available kit (Thermo Scientific, Rockford, Ill.) as described before (Krishnamoorthy et al., Toxicol Sci. 2010; 118(1):298-306).
Urines were collected by placing animals in individual metabolic cages and one ml of RNAlater (Ambion, Austin, Tex.) was added to the tubes to preserve RNA. Urinary Kidney Injury Molecule-1 (Kim-1 in rats and KIM-1 in humans) was measured using previously established luminex-based assays (Vaidya et al., Nat Biotechnol. 2010; 28(5):478-485; Vaidya et al., Clinical and Translational Science. 2008; 1(3):200-208). Urinary Kim-1 in mice was measured using a luminex-based assay. Urinary N-acetyl-β-D-glucosaminidase (NAG) was measured spectrophotometrically according to the manufacturers' protocols (Roche diagnostics, Basel Switzerland). Urinary creatinine concentration was used to normalize biomarker measurements in order to account for the influence of urinary dilution on biomarker concentrations. Fibrinogen in mouse, rat and human urines was measured using a commercially available species-specific luminex assay based kit from Millipore (Billerica, Mass.).
Immunostaining, to evaluate the cellular expression profile of Fg whole protein and Fgα, Fgβ and Fgγ chains was performed as follows. Kidney tissues were perfused with cold PBS before harvesting and then fixed in formalin for 16 h and embedded in paraffin. The sections incubated overnight at 4° C. in rabbit monoclonal anti-Fibrinogen alpha (Epitomics, Burlingame, Calif.), rabbit polyclonal anti-Fibrinogen beta (ProteinTech Group, Chicago, Ill.), rabbit polyclonal anti-Fibrinogen gamma (ProteinTech Group, Chicago, Ill.), anti-rat fibrinogen (Nordic Immunological Laboratories, Tilburg, The Netherlands), anti-human fibrinogen (Sigma-Aldrich, St. Louis, Mo.) and rabbit monoclonal anti-Ki67 (Vector Laboratories, Burlingame, Calif.). The primary antibody was detected using goat anti-rabbit Cy3 labeled and donkey anti goat Cy3 labeled secondary antibodies (Jackson ImmunoResearch Laboratories, West Grove, Pa.). DAPI (Sigma Aldrich, St. Louis, Mo.) was used for nuclear staining. The tissue sections were mounted using ProLong Gold Antifade Reagent (Invitrogen, Carlsbad, Calif.). The images were captured at 100× for rats, 60× for mice and humans using NIKON Eclipse 90i fluorescence microscope.
Endotoxin free Bβ15-42 ([…]) and random peptide ([…]) were custom synthesized (Invitrogen, Carlsbad, Calif.) with 95% modification and N-terminal amine group addition and free acid modification. Bβ15-42 or random peptide (3.6 mg/kg) was administered intravenously (iv) 1 min after reperfusion following 27 min bilateral renal I/R injury in C57BL/6 mice (n=5 to 10/group). Forty male C57Bl6 wild type mice were anesthetized using pentobarbital sodium (30 mg/kg, ip) and subjected to 27 min of bilateral renal I/R surgery by the retroperitoneal approach. Sham surgery was performed with exposure of both kidneys but without induction of ischemia. […]

[2] = test system: acute lung injury in animal models; details: suprapharmacological doses; cited from earlier work
LLC-PK1 cells = test: BrdU uptake (cell proliferation) of LLC-PK1 cells after mineral-oil hypoxia; type: cell-based, pig; details: 6 μM; 48 h post hypoxia; serum free; vs random peptide
Description: FIG. 4E is a bar graph showing cell proliferation measured by bromodeoxyuridine (5-bromo-2-deoxyuridine (BrdU) uptake, by LLC-PK1 cells, 48 h post onset of hypoxia at 450 nm wavelength. Absorbance obtained from untreated cells was taken as 100% (n=6 wells/group). * represents p<0.05 as determined by Student's t-test between the two groups.
In vitro experiments using proximal tubular epithelial cells (LLC-PK1) were also performed. The renal tubular epithelial cell line, LLC-PK1, established from pig renal cortex was obtained from ATCC (Manassas, Va.) and maintained in DMEM containing 10% FBS. Two thousand five hundred LLC-PK1 cells were plated in 96 well plate for 24 h in DMEM 10% fetal bovine serum (FBS) at which time they formed a 50% confluent monolayer in the well. They were pretreated with 6 μM of Bβ15-42 or random peptide for 6 h and were immersed in 100 μl of mineral oil on top of DMEM medium without any serum for 6 h. […] Bromodeoxyuridine (5-bromo-2-deoxyuridine (BrdU) was measured as an index of cell proliferation by incubating cells with BrdU for 2 h before harvesting and the absorbance was quantified using a spectrophotometer at 450 nm wavelength as per manufacturer's instructions (Millipore, Bellerica, Mass.). Absorbance obtained from untreated cells was taken as 100% (n=6 wells/group) and the experiment was repeated twice.

VE-Cadherin = molecular target: T1, VE-Cadherin (Homo sapiens, UniProt P33151); details: disrupts interaction of Fg with VE-Cadherin on endothelial cells; cited from earlier work
T1 sequence (P33151 48-784): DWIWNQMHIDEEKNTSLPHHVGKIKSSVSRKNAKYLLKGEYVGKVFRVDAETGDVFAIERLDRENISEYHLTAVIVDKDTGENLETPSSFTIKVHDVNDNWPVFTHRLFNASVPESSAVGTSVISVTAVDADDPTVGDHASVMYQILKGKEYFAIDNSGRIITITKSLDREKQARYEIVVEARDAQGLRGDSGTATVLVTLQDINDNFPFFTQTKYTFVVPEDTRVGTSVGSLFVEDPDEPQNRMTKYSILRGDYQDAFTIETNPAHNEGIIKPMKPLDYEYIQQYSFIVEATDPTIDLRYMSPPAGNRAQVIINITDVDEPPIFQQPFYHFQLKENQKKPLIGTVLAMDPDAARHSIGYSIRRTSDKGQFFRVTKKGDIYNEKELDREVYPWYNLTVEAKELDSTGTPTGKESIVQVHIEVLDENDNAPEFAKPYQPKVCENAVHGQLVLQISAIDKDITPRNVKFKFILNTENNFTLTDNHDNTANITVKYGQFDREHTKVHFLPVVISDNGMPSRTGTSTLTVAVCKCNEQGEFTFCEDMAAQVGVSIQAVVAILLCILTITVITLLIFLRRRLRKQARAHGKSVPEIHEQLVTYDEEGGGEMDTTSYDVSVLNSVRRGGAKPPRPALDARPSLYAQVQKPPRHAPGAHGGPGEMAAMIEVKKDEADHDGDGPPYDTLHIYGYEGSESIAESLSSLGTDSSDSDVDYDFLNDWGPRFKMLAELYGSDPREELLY

[3] = test system: patients with acute myocardial infarction; details: phase IIa; patients whose endothelial barrier integrity had not been compromised; cited from earlier work
[4] = test system: myocardial infarction in animal models; details: suprapharmacological doses; cited from earlier work
[5] = mean ± SEM, listed as galactosamine
[6] = 3.6 mg/kg iv, 24 and 48 h, vs random peptide
[7] = 3.6 mg/kg iv, 24 h after I/R, vs random peptide

N[C@H]1C(O)O[C@H](CO)[C@H](O)[C@@H]1O (stereo partly drawn) [Galactosamine, galactosamine]
histopathological score kidney (rats): 0 | histopathological score liver (rats): 2 | histopathological score kidney (rats; listed as galactosamine): no signs of kidney structural or functional damage | histopathological score liver (rats; listed as galactosamine): extensive hepatocellular damage | ALT (rats; mean ± SEM): 422.8 ± 121.9 U/l | AST (rats; mean ± SEM): 246.0 ± 57.5 U/l | BUN (rats; mean ± SEM): 19.1 ± 1.1 mg/dL | Scr (rats; mean ± SEM): 0.5 ± 0.0 mg/dL | kidney Fgα gene expression (FC relative to control) (rats; mean ± SEM): 1.2 ± 0.1 FC | kidney Fgβ gene expression (FC relative to control) (rats; mean ± SEM): 1.0 ± 0.0 FC | kidney Fgγ gene expression (FC relative to control) (rats; mean ± SEM): 0.9 ± 0.1 FC | kidney Kim-1 gene expression (FC relative to control) (rats; mean ± SEM): 1.0 ± 0.1 FC | urinary excretion of Fg (rats; mean ± SEM): 26.0 ± 26.0 ng/mg Cr | ALT (rats; [5]): significant increase | AST (rats; [5]): significant increase | kidney Fgα gene expression (FC relative to control) (rats; [5]): did not lead to any increase | kidney Fgβ gene expression (FC relative to control) (rats; [5]): did not lead to any increase | kidney Fgγ gene expression (FC relative to control) (rats; [5]): did not lead to any increase | urinary excretion of Fg (rats; [5]): did not lead to any increase

GHRPLDKKREEAPSLRPAPPPISGGGYR (synthetically generated peptides) [Bβ15-42, naturally occurring 28 amino acid long product cleaved from fibrin fragments; Fgβ chain derived peptide, custom synthesized, endotoxin free]
infarct size and vascular congestion ([1]; 3.6 mg/kg iv 1 min after reperfusion, vs random peptide): significant reduction; also recorded: significantly smaller | leukocyte infiltration (myeloperoxidase staining) [1, 6]: similar | mRNA levels of inflammatory cytokines (IL-1β, IL-6, IL-10, TNFα, ICAM) and macrophage marker (CD68) in kidney [1, 6]: no difference | proximal tubular damage in the outer stripe of outer medulla (H & E histopathology) [1, 7]: significant decrease | reduction in kidney dysfunction measured by blood urea nitrogen (BUN) [1, 7]: Approximately 50% | reduction in kidney dysfunction measured by serum creatinine (SCr) [1, 7]: Approximately 50% | reduction in kidney proximal tubular injury measured by urinary Fg [1, 7]: Approximately 50% | reduction in kidney proximal tubular injury measured by urinary kidney injury molecule-1 [1, 7]: Approximately 50% | number of TUNEL positive apoptotic cells in the renal medulla ([1]; 24 h, vs random peptide): similar | apoptosis (TUNEL) in the renal medulla ([1]; 48 h, p<0.05 vs random peptide): significant decrease | proliferative (Ki67 positive) cells in the renal medulla ([1]; 48 h, vs random peptide): significant number of cells appeared to be in a proliferative state | acute tubular injury ([1]; mice, bilateral renal I/R injury): substantially reduced | protection from acute lung injury [2]: protect | renal epithelial cell proliferation (BrdU uptake) (LLC-PK1 cells): stimulating renal epithelial cell proliferation | interactions with VE-Cadherin (VE-Cadherin): low affinity | clinical effect in acute myocardial infarction [3]: successful protective effects | protection from myocardial infarction [4]: protect
